Measured values reported in the supplement of paper PMC11061612.

How the values were obtained:
[1] = system: MIA-PaCa-2 (Pancreatic Carcinoma); experiment: combination Emax (second highest fraction inhibited in the dose matrix, 72 h); higher = more inhibition; extreme values may be limits of the assay
Procedure, shortened: (§1)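 After 24 hours at 37°C and 5% CO2 in 1536-well plates, cells in DMEM/F12 or RPMI plus 10% FBS received two-drug dose matrices for 72 hours. Viability came from CellTiter-Glo 2.0 luminescence and was scaled as inhibition, anchored at 0 by vehicle wells and at 1 by blank wells. Combination Emax is taken as the second-highest inhibition in the matrix, and Bliss excess as the observed combination effect less EA + EB − EA·EB, with EA and EB the single-agent effects.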

[2] = system: EoL-1-cell (Acute Myeloid Leukemia); experiment: as above
Procedure, shortened: as §1

[3] = system: KYSE-450 (Esophageal Squamous Cell Carcinoma); experiment: as above
Procedure, shortened: as §1

[4] = system: Caov-4 (Ovarian Carcinoma); experiment: as above
Procedure, shortened: as §1

[5] = system: PANC-04-03 (Pancreatic Carcinoma); experiment: as above
Procedure, shortened: as §1

[6] = system: TK10 (Kidney Carcinoma); experiment: as above
Procedure, shortened: as §1

[7] = system: MLMA (Other Blood Carcinomas); experiment: as above
Procedure, shortened: as §1

[8] = system: Ca9-22 (Head and Neck Carcinoma); experiment: as above
Procedure, shortened: as §1

[9] = system: NCI-H358 (Lung Adenocarcinoma); experiment: as above
Procedure, shortened: as §1

[10] = system: NB69 (Neuroblastoma); experiment: as above
Procedure, shortened: as §1

[11] = system: NUGC-3 (Gastric Carcinoma); experiment: Bliss excess, mean over the matrix (fraction); higher = more synergy
Procedure, shortened: as §1

[12] = system: OVCAR-4 (Ovarian Carcinoma); experiment: as above
Procedure, shortened: as §1

[13] = system: HSC-4 (Oral Cavity Carcinoma); experiment: as above
Procedure, shortened: as §1

[14] = system: OE19 (Esophageal Adenocarcinoma); experiment: as above
Procedure, shortened: as §1

[15] = system: VA-ES-BJ (Other Solid Carcinomas); experiment: as above
Procedure, shortened: as §1

[16] = system: SCC-15 (Oral Cavity Carcinoma); experiment: as above
Procedure, shortened: as §1

[17] = system: JVM-3 (B-Cell Non-Hodgkin's Lymphoma); experiment: as above
Procedure, shortened: as §1

[18] = system: NCI-H1915 (Non-Small Cell Lung Carcinoma); experiment: as above
Procedure, shortened: as §1

[19] = system: OSC-20 (Oral Cavity Carcinoma); experiment: as above
Procedure, shortened: as §1

[20] = system: C-4-I (Cervical Carcinoma); experiment: as above
Procedure, shortened: as §1
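Wherever Bliss excess, mean over the matrix is given: after 72 h of two-drug dosing.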

Row | Compound | combination Emax [1] | combination Emax [2] | combination Emax [3] | combination Emax [4] | combination Emax [5] | combination Emax [6] | combination Emax [7] | combination Emax [8] | combination Emax [9] | combination Emax [10] | Bliss excess [11] | Bliss excess [12] | Bliss excess [13] | Bliss excess [14] | Bliss excess [15] | Bliss excess [16] | Bliss excess [17] | Bliss excess [18] | Bliss excess [19] | Bliss excess [20]
1 | Cc1cc2ncnn2cc1Nc1ncc2c(n1)n(C1CCOCC1)c(=O)n2C [AZD7648] + C[C@@H]1COCCN1C2=NC(=NC(=C2)C3(CC3)[S@](=N)(=O)C)C4=C5C=CNC5=NC=C4 [AZD6738] (first compound max 10 µM, 7x7, partner max 10 µM) | 0.592 | 0.967 | 0.593 | 0.916 | 0.522 | 0.753 | 0.67 | 0.919 | 0.606 | 0.865 | -0.0657 | -0.0053 | -0.0165 | -0.0607 | -0.0099 | 0.0975 | 0.0108 | -0.0216 | 0.0065 | 0.0255
2 | Cc1cc2ncnn2cc1Nc1ncc2c(n1)n(C1CCOCC1)c(=O)n2C [AZD7648] + CCN(CCO)CCCOc1ccc2c(Nc3cc(CC(=O)Nc4cccc(F)c4)[nH]n3)ncnc2c1 [AZD2811] (first compound max 10 µM, 7x7, partner max 1 µM) | 0.516 | 0.984 | 0.343 | 0.445 | 0.284 | 0.42 | 0.351 | 0.3 | 0.326 | 0.655 | -0.0046 | -0.0035 | 0.0036 | 0.0151 | -0.0034 | 0.071 | 0.0791 | -0.0444 | -0.0209 | 0.048
3 | CN(CCO)CC[C@H](CSc1ccccc1)Nc1ccc(S(=O)(=O)NC(=O)c2ccc(N3CCC([C@@H](O)c4ccccc4-c4ccc(Cl)cc4)CC3)cc2)cc1S(=O)(=O)C(F)(F)F [AZD4320] + C1CN(CCC1(C(=O)N[C@@H](CCO)C2=CC=C(C=C2)Cl)N)C3=NC=NC4=C3C=CN4 [Capivasertib] (first compound max 1 µM, 7x7, partner max 3 µM) | 0.133 | 1 | 0.199 | 0.131 | 0.178 | 0.39 | 0.384 | 0.301 | 0.273 | 0.652 | -0.039 | -0.0417 | -0.0269 | -0.0479 | -0.0376 | -0.0606 | -0.0162 | -0.0459 | -0.0513 | -0.0101
4 | CN(CCO)CC[C@H](CSc1ccccc1)Nc1ccc(S(=O)(=O)NC(=O)c2ccc(N3CCC([C@@H](O)c4ccccc4-c4ccc(Cl)cc4)CC3)cc2)cc1S(=O)(=O)C(F)(F)F [AZD4320] + C[C@@H]1COCCN1C2=NC(=NC(=C2)C3(CC3)[S@](=N)(=O)C)C4=C5C=CNC5=NC=C4 [AZD6738] (first compound max 1 µM, 7x7, partner max 10 µM) | 0.632 | 1 | 0.547 | 0.874 | 0.461 | 0.866 | 0.83 | 0.969 | 0.705 | 0.959 | -0.0445 | -0.0392 | 0.12 | -0.0789 | -0.012 | 0.0475 | -0.027 | -0.044 | -0.0694 | 0.0036
5 | CN(CCO)CC[C@H](CSc1ccccc1)Nc1ccc(S(=O)(=O)NC(=O)c2ccc(N3CCC([C@@H](O)c4ccccc4-c4ccc(Cl)cc4)CC3)cc2)cc1S(=O)(=O)C(F)(F)F [AZD4320] + C[C@@H](Nc1cc(F)cc(F)c1)c1cc(C(=O)N(C)C)cc2c(=O)cc(N3CCOCC3)oc12 [AZD8186] (first compound max 1 µM, 7x7, partner max 3 µM) | 0.444 | 1 | 0.33 | 0.461 | 0.257 | 0.54 | 0.701 | 0.648 | 0.394 | 0.97 | -0.0383 | 0.0154 | -0.12 | 0.0201 | 0.0393 | -0.0179 | 0.0456 | 0.0202 | 0.0146 | 0.0681
6 | COc1cc2c(cc1OCCCCCOc1cc3c(cc1OC)C(=O)N1C=C(C)C[C@H]1C=N3)N=C[C@@H]1CC(C)=CN1C2=O [SG3199] + O=C(c1cc(Cc2n[nH]c(=O)c3ccccc23)ccc1F)N1CCN(C(=O)C2CC2)CC1 [Olaparib] (first compound max 0.001 µM, 7x7, partner max 10 µM) | 0.168 | 0.319 | 0.0761 | 0.165 | 0.114 | 0.0517 | 0.164 | 0.0924 | 0.0868 | 0.444 | -0.0332 | -0.0193 | -0.046 | 0.0098 | 0.0099 | -0.03 | -0.0278 | -0.0248 | -0.0319 | -0.012
7 | Cc1cc2ncnn2cc1Nc1ncc2c(n1)n(C1CCOCC1)c(=O)n2C [AZD7648] + C=CCn1c(=O)c2cnc(Nc3ccc(N4CCN(C)CC4)cc3)nc2n1-c1cccc(C(C)(C)O)n1 [AZD1775] (first compound max 10 µM, partner max 1 µM) | 0.558 | 0.978 | 0.638 | 0.922 | 0.555 | 0.63 | 0.89 | 0.734 | 0.524 | 0.887 | 0.0165 | -0.0108 | -0.0082 | -0.0099 | -0.008 | 0.0938 | -0.0686 | -0.0738 | -0.0252 | -0.015
8 | CN(CCO)CC[C@H](CSc1ccccc1)Nc1ccc(S(=O)(=O)NC(=O)c2ccc(N3CCC([C@@H](O)c4ccccc4-c4ccc(Cl)cc4)CC3)cc2)cc1S(=O)(=O)C(F)(F)F [AZD4320] + C=CCn1c(=O)c2cnc(Nc3ccc(N4CCN(C)CC4)cc3)nc2n1-c1cccc(C(C)(C)O)n1 [AZD1775] (first compound max 1 µM, partner max 1 µM) | 0.6 | 1 | 0.64 | 0.857 | 0.486 | 0.571 | 0.994 | 0.851 | 0.498 | 0.952 | -0.0346 | -0.0068 | 0.023 | 0.0072 | 0.006 | 0.0336 | -0.101 | 0.0125 | -0.0933 | 0.0656
9 | Cc1cc2ncnn2cc1Nc1ncc2c(n1)n(C1CCOCC1)c(=O)n2C [AZD7648] + CN(C)CCCOc1ccc(-c2ccc3ncc4c(c3c2)n(C2CCOCC2)c(=O)n4C)cn1 [AZD0156] (first compound max 10 µM, 7x7, partner max 1 µM) | 0.401 | 0.238 | 0.252 | 0.344 | 0.347 | 0.442 | 0.671 | 0.226 | 0.349 | 0.565 | -0.0262 | -0.0126 | -0.0154 | 0.0583 | 0.0248 | 0.0215 | -0.0297 | -0.0208 | -0.0082 | 0.0099
